These results are taken from patent publication US11726088B2, “Sirtuin 4 (SIRT4) lipoamidase activity and uses thereof” (THE TRUSTEES OF PRINCETON UNIVERSITY, priority 2014, dated 2023).

What all share (format): biochemical
In assay [1] the target is T1, SIRT4 (Homo sapiens, UniProt Q9Y6E7).
T1 construct: 6xHis (followed by human rhinovirus 3C protease site) (N); made in house; host or cells: E. coli BL21(DE3), co-expressed with GroEL and GroES
T1 sequence (Q9Y6E7 33-314): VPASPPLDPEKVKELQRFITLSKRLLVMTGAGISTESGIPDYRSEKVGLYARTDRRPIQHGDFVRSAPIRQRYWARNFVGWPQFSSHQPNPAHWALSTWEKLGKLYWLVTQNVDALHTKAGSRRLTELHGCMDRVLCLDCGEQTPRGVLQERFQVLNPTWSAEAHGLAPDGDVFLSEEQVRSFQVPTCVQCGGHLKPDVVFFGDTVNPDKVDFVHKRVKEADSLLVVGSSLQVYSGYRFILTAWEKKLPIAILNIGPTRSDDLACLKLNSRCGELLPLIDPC
The assay is described as follows: LC-MS-based in vitro peptide deacylation assay. To be noted: 5 μM SIRT4, 10 uM peptide, with NAD, 1 hr at 37° C. The source says: Recombinant SIRT4 protein expression and purification. N-terminally truncated human Sirt4 (33-314 of SEQ ID NO: 2) was cloned into a derivative of pET-15b containing a human rhinovirus 3C Protease cleavage site in place of its thrombin cleavage site. 6×His-Sirt4 was co-expressed with GroEL and GroES in BL21(DE3) E. coli in order to promote proper protein folding. Protein was purified using immobilized-metal affinity chromatography (IMAC) followed by anion-exchange chromatography to remove associated folding chaperones. For some experiments the His-tag was removed using 3C protease. Protein was concentrated, snap frozen in N2(l), and stored at −80° C.
LC-MS-based in vitro peptide deacylation assay. The ability of SIRT4 to hydrolyze various acyl-lysine modifications was measured using LC-MS. In 20 μL reaction volume, 10 uM peptide (lipoyl-, biotinyl-, or acetyl-lysine) was incubated with increasing concentrations of SIRT4 (0.5 μM, 2.5 μM, and 5 μM), with or without NAD, in 50 mM TrisHCl, pH 8, 137 mM NaCl, 2.7 mM KCl and 1 mM MgCl2, for 1 hr at 37° C. Reactions were quenched with 25 μL of 2% TFA and an internal control peptide was spiked in to monitor for run-to-run variability. Reaction products were desalted, eluted, concentrated and analyzed by nano-LC-MS/MS, as above, but altered LC gradients. A 30 min linear gradient from 4-40% B was used for all peptides, except for lipoyl-lysine biological peptides, which used a 12-70% B linear gradient. Data were imported into Skyline software (version 2.1) to obtain precursor extracted ion chromatographams (XICs) using the following settings: Isotope Count, 3; precursor mass analyzer, Orbitrap; Resolving power, 60,000 @ 400 Th. The retention times of substrate (modified) and product (unmodified) peptides were confirmed by fragmentation spectra and peak integration boundaries were manually inspected. Three biological replicates were analyzed for each reaction.
The lipoamide cofactor bound to E2 (transferase enzymes) is required for dehydrogenase complex activity (FIG. 1b). Given that other mitochondrial SIRTs can hydrolyze various […] group lysine modifications^3,4 and that all PDHC components were present in our SIRT4 isolation, we speculated that E2 dehydrogenase components may be biological substrates of SIRT4, and that SIRT4 may directly hydrolyze the lipoamid modification. To test this we screened the in vitro activity of recombinant SIRT4 against differentially-modified synthetic peptides (FIG. 10). Firstly, SIRT4 activity towards acyl-modified H3K9 peptides (SEQ ID NOs: 3-5) was measured using a liquid-chromatography (LC)-MS-based deacylation assay. SIRT4 was incubated with H3K9 peptides modified with acetyl-lysine (SEQ ID NO: 5), biotinyl-lysine (SEQ ID NO: 4) or lipoyl-lysine (SEQ ID NO: 3), in the presence or absence of NAD. Following reaction, the remaining unreacted substrates and newly generated unmodified peptides were identified and quantified by LC-MS (FIG. 2A, 2G-2I and FIG. 5). […] To compare the relative preference of SIRT4 for these different substrates, we used extracted ion chromatograms to quantify unreacted substrate (S) and product (P) amounts from all reactions, and represented the percentage of unmodified peptide generated (FIG. 2H). […] The relative amount of unmodified product generated using 5 μM SIRT4 was 11% (lipoyl—SEQ ID NO: 3), 3% (biotinyl—SEQ ID NO: 4) and 0.3% (acetyl—[…]) (FIG. 2B and FIG. 2H, H3K9 substrates). […]

The target in assay [2] is T1, SIRT4. The assay is described as follows: HPLC-based SIRT4 kinetics assays (steady-state, acyl-modified peptide substrates). To be noted: SIRT4 enzyme concentration = 5 μM; NAD 1 mM; 25° C. From the text:
Recombinant SIRT4 protein expression and purification. N-terminally truncated human Sirt4 (33-314 of SEQ ID NO: 2) was cloned into a derivative of pET-15b containing a human rhinovirus 3C Protease cleavage site in place of its thrombin cleavage site. 6×His-Sirt4 was co-expressed with GroEL and GroES in BL21(DE3) E. coli in order to promote proper protein folding. Protein was purified using immobilized-metal affinity chromatography (IMAC) followed by anion-exchange chromatography to remove associated folding chaperones. For some experiments the His-tag was removed using 3C protease. Protein was concentrated, snap frozen in N2(l), and stored at −80° C. HPLC-based SIRT4 kinetics assays. SIRT4 kinetic assays were essentially performed as described by others^3,4. Briefly, enzyme reactions (20 μL) were performed in 50 mM Tris, pH 8.0, containing 5 μM recombinant SIRT4 and varying concentrations (0 to 2500 μM) of H3K9- or DLAT-modified peptides with either acetyl-lysine, biotinyl-lysine, or lipoyl-lysine. Reactions were initiated by addition of NAD (1 mM) and incubated at 25° C. for between 30-120 min, depending on substrate-specific reaction rates and to maintain steady-state conditions. Reactions were quenched with formic acid to a final concentration of 0.5% (v/v) and analyzed by HPLC-UV detection (Ultimate 3000 RSLC/VWD-3400). Substrate and product were separated by reverse-phase chromatography (Acclaim PepMap RSLC, 75 μm×15 cm) at 0.75 μL/min. Product concentration was measured by peak integration of A280 signals. Initial reaction velocities were determined in at least duplicate and fit to a modified Briggs-Haldane equation, which substituted kcat×[SIRT4] for Vmax and allowed determination of kinetic parameters, kcat, Km and kcat/Km and their associated error (±SEM), using GraphPad Prism 5. SIRT4's catalytic efficiency towards the various acyl-modified peptide substrates was assessed (Table 1 below).

A further assay has as its system purified porcine PDH. Nature of the assay: Immuno-capture activity assay of purified porcine PDH in vitro. The following applies: PDP1 0.1 μg/μL; recombinant SIRT4 50 μM + NAD 5 mM after PDP1. The method, then:
Purified porcine heart PDH pre-incubated at a final concentration of 1 μg/μl (10 and 25 μL reactions for PDH assay and Western blot, respectively) in 1×PDH assay buffer for 10 min at 30° C. containing 2 mM CaCl2), with or without 0.1 μg/μL of pyruvate dehydrogenase phosphatase catalytic subunit 1 (PDP1, Abcam, cat. #ab110357). To reactions that were treated with PDP1, either NAD alone (5 mM), recombinant SIRT4 (50 μM)+NAD (5 mM), or recombinant SIRT4 H161Y (50 μM)+NAD (5 mM) were added and incubated for an additional 1 hr at RT. 10 μL reactions were diluted with 400 μL of 1×PDH assay buffer and 2×200 μL were used to determine PDH activity. For Western blot analysis (25 μl reactions), 5 μg of purified porcine PDH was mixed in 1× reducing LDS sample buffer, heated at 70° C. for 10 min, resolved by SDS-PAGE, and then proteins were transferred to nitrocellulose membranes for detection of total E1α, pS232, pS293, and pS300 (see western immunoblotting above).
To characterize the impact of the observed in vitro activity, we next assessed whether SIRT4 could regulate the activity of PDH. We first used an immuno-capture assay to test the activity of purified porcine PDH in vitro (FIG. 14A). […] Therefore, we speculated that the reduction in activity may result from SIRT4 directly hydrolyzing the DLAT lipoamide.

Primed or numbered codes have the meaning given here. Ends that are not written are not given here. Peptide text beside a SMILES is read from it. * marks the point of attachment. ξ: configuration not given here. Biotin = O=C1N[C@H]2[C@H](CS[C@H]2CCCCC(=O)*)N1; lipoyl″ = O=C(CCCC[C@@H]1CCSS1)*; Lipoyl(6ξ) = O=C(CCCCC1CCSS1)*

For orientation: Km means the substrate concentration at which the rate is half of its maximum.

With `CC(=O)NCCCC[C@H](NC(=O)[C@H](CCCNC(=N)N)NC(=O)[C@H](C)NC(=O)[C@@H](NC(=O)[C@H](CCC(N)=O)NC(=O)[C@@H](N)CCCCN)[C@@H](C)O)C(=O)N[C@@H](CO)C(=O)N[C@H](C(=O)NCC(=O)NCC(=O)N[C@@H](Cc1c[nH]c2ccccc12)C(=O)N[C@@H](Cc1c[nH]c2ccccc12)C(=O)O)[C@@H](C)O` [H3 K9 Acetyl] (H-KQTARK(Ac)STGGWW-OH), the “relative amount of unmodified product generated” value (“relative amount” below) at SIRT4 [1] was determined as 0.3%. In addition, on SIRT4 [2], the Michaelis-Menten constant (Km) was more than 2500 µM.

As for “PDHX: lipoyl-modified PDHX peptide substrate (SEQ ID NO: 12); unmodified product is SEQ ID NO: 13 (EIETDK(lipoyl″)AVVTWW)”, in the assay with SIRT4 [1], the “relative amount” value is reported as 42%.

On to `C[C@H](NC(=O)[C@@H](NC(=O)[C@H](CCC(N)=O)NC(=O)[C@@H](N)CCCCN)[C@@H](C)O)C(=O)N[C@@H](CCCNC(=N)N)C(=O)N[C@@H](CCCCNC(=O)CCCC[C@@H]1SC[C@@H]2NC(=O)N[C@@H]21)C(=O)N[C@@H](CO)C(=O)N[C@H](C(=O)NCC(=O)NCC(=O)N[C@@H](Cc1c[nH]c2ccccc12)C(=O)N[C@@H](Cc1c[nH]c2ccccc12)C(=O)O)[C@@H](C)O` [H3 K9 Biotinyl] (H-KQTARK(Biotin)STGGWW-OH), for which the “relative amount” value on SIRT4 [1] was found to be 3%. For the same molecule, at SIRT4 [2], the Michaelis-Menten constant (Km) was 719 ± 79 µM.

Take “MCD K471 Acetyl: synthetic MCD K471 peptide SYLGSKNIKASEW with acetyl-lysine (SEQ ID NO: 29) (also: acetyl-lysine at K471, K6 or K9 not given here)”: the Km in the assay with SIRT4 [2] is more than 2500 µM.

Turning to `CC[C@H](C)[C@H](NC(=O)[C@@H](NC(=O)[C@H](C)NC(=O)[C@H](CCCCNC(C)=O)NC(=O)[C@H](CC(=O)O)NC(=O)[C@@H](NC(=O)[C@H](CCC(=O)O)NC(=O)[C@@H](NC(=O)[C@@H](N)CCC(=O)O)[C@@H](C)CC)[C@@H](C)O)[C@@H](C)O)C(=O)NCC(=O)N[C@@H](Cc1c[nH]c2ccccc12)C(=O)O` [DLAT K259 Acetyl] (H-EIETDK(Ac)ATIGW-OH), the Km at SIRT4 [2] was more than 2500 µM.

With `C[C@H](NC(=O)[C@@H](NC(=O)[C@H](CCC(N)=O)NC(=O)[C@@H](N)CCCCN)[C@@H](C)O)C(=O)N[C@@H](CCCNC(=N)N)C(=O)N[C@@H](CCCCNC(=O)CCCCC1CCSS1)C(=O)N[C@@H](CO)C(=O)N[C@H](C(=O)NCC(=O)NCC(=O)N[C@@H](Cc1c[nH]c2ccccc12)C(=O)N[C@@H](Cc1c[nH]c2ccccc12)C(=O)O)[C@@H](C)O` (some centres unmarked) [H3 K9 Lipoyl] (H-KQTARK(Lipoyl(6ξ))STGGWW-OH), the “relative amount” value on SIRT4 [1] was 11%. Also, the Michaelis constant (Km) at SIRT4 [2] turned out to be 814 ± 163 µM.

B1: PDP1: pyruvate dehydrogenase phosphatase catalytic subunit 1 (protein, UniProt Q9P0J1 72-537, looked up)
[Pyruvate dehydrogenase …: ASTPQKFYLTPPQVNSILKANEYSFKVPEFDGKNVSSILGFDSNQLPANAPIEDRRSAATCLQTRGMLLGVFDGHAGCACSQAVSERLFYYIAVSLLPHETLLEIENAVESGRALLPILQWHKHPNDYFSKEASKLYFNSLRTYWQELIDLNTGESTDIDVKEALINAFKRLDNDISLEAQVGDPNSFLNYLVLRVAFSGATACVAHVDGVDLHVANTGDSRAMLGVQEEDGSWSAVTLSNDHNAQNERELERLKLEHPKSEAKSVVKQDRLLGLLMPFRAFGDVKFKWSIDLQKRVIESGPDQLNDNEYTKFIPPNYHTPPYLTAEPEVTYHRLRPQDKFLVLATDGLWETMHRQDVVRIVGEYLTGMHHQQPIAVGGYKVTLGQMHGLLTERRTKMSSVFEDQNAATHLIRHAVGNNEFGTVDHERLSKMLSLPEELARMYRDDITIIVVQFNSHVVGAYQNQE
Take B1: in the assay on purified porcine PDH, the “activity of purified porcine PDH” value was “elevated PDH activity”.

B2: SIRT4: N-terminally truncated recombinant human Sirt4 (33-314 of SEQ ID NO: 2) (protein, listed as Homo sapiens)
chain: VPASPPLDPEKVKELQRFITLSKRLLVMTGAGISTESGIPDYRSEKVGLYARTDRRPIQHGDFVRSAPIRQRYWARNFVGWPQFSSHQPNPAHWALSTWEKLGKLYWLVTQNVDALHTKAGSRRLTELHGCMDRVLCLDCGEQTPRGVLQERFQVLNPTWSAEAHGLAPDGDVFLSEEQVRSFQVPTCVQCGGHLKPDVVFFGDTVNPDKVDFVHKRVKEADSLLVVGSSLQVYSGYRFILTAWEKKLPIAILNIGPTRSDDLACLKLNSRCGELLPLIDPC
Take B2: the “activity of purified porcine PDH” value with purified porcine PDH was “able to attenuate PDH activity”.
